The test system of series [1] is HCT 116 cells. In words: 72 h GI50 assay in HCT 116. To be noted: read-out: HCT 116 GI50; 72 h growth inhibition.
Series [2] deals with DU 145 cells. In words: 72 h GI50 assay in DU 145. To be noted: read-out: DU 145 GI50; 72 h growth inhibition.
Series [3] has as its system 5838 Ewing sarcoma cells (EWS-ERG). In words: 72 h GI50 assay in 5838. To be noted: for GI50: read-out: 5838 Ewing Sarcoma EWS-ERG GI50, 72 h growth inhibition, 5838 cells; for Ratio of median GI50 Non-Ewing sarcoma cell lines (cf Table 3):5838: selectivity for 5838 cells.
Series [4] has as its system A-673 Ewing sarcoma cells (EWS-FLI1 Type 1). Nature of the series: 72 h GI50 assay in A-673. The settings on record: read-out: A-673 EWS-FLI1 Type 1 GI50; 72 h growth inhibition.
Series [5] relates to A549 cells. In words: 72 h GI50 assay in A549. The settings on record: read-out: A549 GI50; 72 h growth inhibition.
For series [6], the system named is ES-8 Ewing sarcoma cells (EWS-FLI1 Type 2). In words: 72 h GI50 assay in ES-8. The settings on record: read-out: ES-8 EWS-FLI1 Type 2 GI50; 72 h growth inhibition.
Series [7] has as its system TC-71 Ewing sarcoma cells (EWS-FLI1 Type 1). To be noted: 72 h growth inhibition.
In series [8] the test system is LNCaP cells. In words: 72 h GI50 assay in LNCaP. The settings on record: read-out: LNCaP GI50; 72 h growth inhibition.
For series [9], the system named is ES-7 Ewing sarcoma cells (EWS-FLI1 Type 4). Nature of the series: 72 h GI50 assay in ES-7. To be noted: read-out: ES-7 EWS-FLI1 Type 4 GI50; 72 h growth inhibition.
The test system of series [10] is EWS-FLI1 mRNA. In words: Relative mRNA expression (qRT-PCR) of EWS-FLI1 in TC-32 cells. To be noted: 6 and 12 h treatments at GI50. The format is cell-based. The method, then:
TC-32 cells were seeded in 6-well plates at a density of 300,000 cells/well. […] After 6 and 12 h treatments media was removed. Cells were washed with DPBS and 500 μL of 0.05% Trypsin with 0.53 mM EDTA (Corning, Corning, N.Y.) was added. After a 2-3 min incubation, cells detached from the plate and 1 mL of fresh RPMI media was immediately added. Cells were collected in 1.5 mL tubes on ice and centrifuged to a pellet at 1200× g for 5 min. Supernatant was removed and cell pellets were lysed with 600 μL of RLT lysis buffer (Qiagen, Hilden, Germany). Lysates were centrifuged through QIAshredder inserts for complete cell disruption (Qiagen, Hilden, Germany). RNeasy mini spin columns were used to isolate pure RNA (Qiagen, Hilden, Germany). RNA concentrations were measured using NanoDrop 2000 Spectrometer (Thermo Fisher Scientific, Waltham, Mass.) and a 100 ng/μL stock solution was prepared. RNA (1 μg) was used to prepare cDNA with a MultiScribe reverse transcriptase (Thermo Fisher Scientific, Waltham, Mass.). qRT-PCR reactions were conducted using Maxima SYBR green Taq DNA Polymerase (Thermo Fisher Scientific, Waltham, Mass.). EpMotion5070 (Eppendorf, Hamburg, Germany) robot was used to mix reactions in 384 well plates and thermocycling was completed on a QuantStudio 7 Flex (Thermo Fisher Scientific, Waltham, Mass.). […]
A general note: Quantitative PCR measures a nucleic acid by following its amplification.

The test system of series [11] is VCaP prostate cancer cells (TMPRSS2-ERG). In words: 72 h GI50 assay in VCaP. To be noted: for GI50: read-out: VCaP Prostate Cancer TMPRSS2-ERG GI50, 72 h growth inhibition, VCaP cells; for Ratio of median GI50 Prostate cells lacking TMPRSS2-ERG:VCaP: selectivity for VCaP over other prostate cancer cell lines.
The test system of series [12] is NR0B1 promoter (binding promoter of EWS-FLI1). Nature of the series: NR0B1 promoter luciferase reporter assay in stably transfected TC-32 cells. The format is cell-based. To be noted: 12 h treatment. From the text:
Full-length NR0B1 promoter sequence was PCR amplified using Q5 high-fidelity DNA polymerase (New England Biolabs, Ipswich, Mass.) from genomic DNA of TC-32 cells and cloned into the pGLUC-Basic 2 vector (New England Biolabs, Ipswich, Mass.). XhoI and KpnI restriction sites were incorporated into the primers. After restriction enzyme (New England Biolabs, Ipswich, Mass.) digest and purification by gel electrophoresis, the target amplicon was ligated into the pGLUC-Basic 2 vector using T4 DNA ligase (Thermo Fisher Scientific, Waltham, Mass.). Chemically competent TOP10 E. coli cells were used to propagate vectors under ampicillin selection (100 μg/mL) (Thermo Fisher Scientific, Waltham, Mass.). The resulting vectors were extracted and purified using GeneJET plasmid prep kit (Thermo Fisher Scientific, Waltham, Mass.). […]
Selected TC-32 cells, expressing either NR0B1 or CMV luciferase reporter vectors, were seeded in clear 96-well plates at a density of 10,000 cells/well. […] Lysates (80 μL) were transferred to a white luminescence plate. Luciferase substrate, either coelenterazine or D-luciferin (50 μL of 1× solution), for NR0B1 or CMV vectors, respectively, was added in a Glomax 96 microplate luminometer (Promega, Madison, Wis.) and luminescence was immediately measured. […] Luminescence results were normalized to cell viability.
On the technique in general: Reporter assays use an easily measured gene product as a stand-in for the process of interest.

For series [13], the system named is PC-3 (prostate cancer, no ETS translocation) cell line. In words: 72 h growth inhibition (GI50) assay in PC-3. The settings on record: read-out: PC-3 Prostate cancer No ETS Translocation GI50; 72 h growth inhibition, PC-3 cells.
The test system of series [14] is DMS 114 cells. In words: 72 h GI50 assay in DMS 114. To be noted: read-out: DMS 114 GI50; 72 h growth inhibition.

Structures are written as SMILES.

In general, GI50 refers to the concentration that inhibits growth by half.

On to `COC(=O)C(Cc1c[nH]c2ccccc12)NC(=O)C(Cc1ccccc1)NC(=O)C(OC)C1Cc2cc3cc(OC4CC(OC5CC(O)C(O)C(C)O5)C(O)C(C)O4)c(C)c(O)c3c(O)c2C(=O)C1OC1CC(OC2CC(OC3CC(C)(O)C(O)C(C)O3)C(O)C(C)O2)C(O)C(C)O1` (centres unmarked) [Analogue 60, MTMSA-Phe-Trp], for which the 50% growth inhibitory concentration (GI50) in [1] was determined as 449 nM; in series [2], 400 nM; in [3] it was 149 nM; in [4], 168 nM; in series [5], 2850 nM; in series [6], 53 nM. For the same compound, the GI50 in [8] came out at 1610 nM; in series [9] it was 46 nM; in series [11] it was 39 nM; in series [13], 1130 nM; in [14], 1140 nM. In [3], the “Ratio of median GI50 Non-Ewing sarcoma cell lines (cf Table 3):5838” value is listed as 6.7. For the same compound, the “TC-71 EWS-FLI1 Type 1 GI50” value in series [7] is on record as 44 nM. Moreover, the “EWS-FLI1 mRNA expression” value in [10] is reported as “decreased”. Moreover, the “Ratio of median GI50 Prostate cells lacking TMPRSS2-ERG:VCaP” value in series [11] is reported as 25.4. Moreover, in [12], the “NR0B1 promoter driven luciferase signal” value is given as “decreased”.

As to `COC(=O)C(Cc1c[nH]c2ccccc12)NC(=O)C(Cc1c[nH]c2ccccc12)NC(=O)C(OC)C1Cc2cc3cc(OC4CC(OC5CC(O)C(O)C(C)O5)C(O)C(C)O4)c(C)c(O)c3c(O)c2C(=O)C1OC1CC(OC2CC(OC3CC(C)(O)C(O)C(C)O3)C(O)C(C)O2)C(O)C(C)O1` (centres unmarked) [Analogue 61, MTMSA-Trp-Trp], the 50% growth inhibitory concentration (GI50) in series [1] was found to be 198 nM; in [2] it was 246 nM; in series [3], 53 nM; in series [4] it was 364 nM; in [5], 1400 nM; in series [6] it was 114 nM. In addition, the GI50 in [8] stood at 856 nM; in series [9] it was 48 nM; in [11] it was 31 nM; in [13], 568 nM; in series [14], 1120 nM. Moreover, in series [3], the “Ratio of median GI50 Non-Ewing sarcoma cell lines (cf Table 3):5838” value turned out to be 16.2. The “TC-71 EWS-FLI1 Type 1 GI50” value in series [7] is listed as 35 nM. For the same compound, the “EWS-FLI1 mRNA expression” value in series [10] is listed as “decreased”. Also, the “Ratio of median GI50 Prostate cells lacking TMPRSS2-ERG:VCaP” value in series [11] was 18.3. Also, the “NR0B1 promoter driven luciferase signal” value in [12] is reported as “decreased”.

(Values after patent publication US11224609B2, “Mithramycin derivatives having increased selectivity and anti-cancer activity” (University of Kentucky Research Foundation, priority 2017, dated 2022).)
